# Assay results reported in patent US20040072907A1, “Antipicornaviral compounds, compositions containing them, and methods for their use” (priority 1997, published 2004).
# Like-named read-outs stand apart in the source and are kept apart here.
# What was measured:
# [1] = system: HI-HeLa cells; assay: Cytotoxicity in mock-infected HI-HeLa cells (XTT, antirhinoviral assay); format: cell-based; details: mock-infected HI-HeLa cells, read-out: CC50
# Procedure: (§1) In the Cell Protection Assay, the ability of compounds to protect cells against HRV infection was measured by the XTT dye reduction method. This method is described in Weislow, O. S., Kiser, R., Fine, D. L., Bader, J., Shoemaker, R. H., Boyd, M. R., J. Natl. Cancer Inst. 1989, 81, 577-586, the disclosure of which is incorporated herein by reference.
# (§2) Infected or mock-infected cells were resuspended at 8×10^5 cells per mL and incubated with appropriate concentrations of compounds of formula I. Two days later, XTT/PMS was added to test plates, and the amount of formazan produced was quantified spectrophotometrically at 450/650 nm. […] The therapeutic index (TI) was calculated by dividing the CC50 by the EC50.
# HRV stocks were propagated, and viral assays were performed in HI-HeLa cells (ATCC). Cells were grown in Minimal Essential Medium, available from Life Technologies, with 10% fetal bovine serum.
# [2] = system: HRV serotype-14; assay: Antirhinoviral HI-HeLa cell culture assay (XTT cell protection), HRV-14; format: cell-based, human rhinovirus; details: HRV serotype-14, HI-HeLa cells, m.o.i. 0.13, two days, XTT; read-out: EC50
# Procedure: as §1, §2
# (§3) All strains of human rhinovirus (HRV) for use in this assay were purchased from American Type Culture Collection (ATCC) except for HRV serotype-14, which was produced from the infectious cDNA clone constructed and supplied to Applicants by Dr. Robert Rueckert at the Institute for Molecular Virology, University of Wisconsin, Madison, Wis. HRV stocks were propagated, and viral assays were performed in HI-HeLa cells (ATCC). Cells were grown in Minimal Essential Medium, available from Life Technologies, with 10% fetal bovine serum.
# (§4) The compounds were tested against control compounds WIN 51711, WIN 52084, and WIN 54954, all obtained from Sterling-Winthrop Pharmaceuticals, and control compound Pirodavir, obtained from Janssen Pharmaceuticals. Antiviral data obtained for the test compounds are shown in Table 2 where all data are for HRV serotype-14 unless otherwise noted in parentheses.
# [3] = system: HRV serotype 39; assay: Antirhinoviral HI-HeLa cell culture assay (XTT cell protection), HRV-39; format: cell-based, human rhinovirus; details: HRV serotype 39, HI-HeLa cells
# Procedure: as §1, §2, §3, §4
# [4] = molecular target: T1, Recombinant Rhinovirus 3C protease serotype 2 (Human rhinovirus 2, UniProt P04936); format: biochemical
# T1 construct: Recombinant Rhinovirus 3C proteases from serotypes 14, 16, and 2; made in house
# [5] = molecular target: T2, Recombinant Rhinovirus 3C protease serotype 14 (Human rhinovirus 14, UniProt P03303); assay: biochemical
# T2 construct: Recombinant Rhinovirus 3C proteases from serotypes 14, 16, and 2; made in house
# [6] = molecular target: Recombinant Rhinovirus 3C protease serotype 16 (Human rhinovirus 16, UniProt Q82122); format: biochemical
# Procedure: Stock solutions (50 mM, in DMSO) of various compounds were prepared; dilutions were in the same solvent. […] Assays contained 2% DMSO, 50 mM tris pH 7.6, 1 mM EDTA, a compound at the indicated concentrations, approximately 1 μM substrate, and 50-100 nM protease. […] The kobs/I values were obtained from reactions initiated by addition of enzyme rather than substrate. RVP activity is measured in the fluorescence resonance energy transfer assay. […] In the uncleavaed peptide, the EDANS fluorescence was quenched by the proximal DABCYL moiety. When the peptide was cleaved, the quenching was relieved, and activity was measured as an increase in fluorescence signal.
# In the above table, all data are for RVP serotype-14 unless otherwise noted in parentheses. All strains of human rhinovirus (HRV) were purchased from American Type Culture Collection (ATCC) except for serotype 14, which was produced from the infectious cDNA clone constructed and supplied to Applicants by Dr. Robert Rueckert at the Institute for Molecular Virology, University of Wisconsin, Madison, Wis. The column designated INHIB represents the percent inhibition at 10 minute preincubation with 50 nM RVP prior to addition of substrate. The data in the column designated kobs/I was measured from progress curves enzyme start experiments.
# [7] = system: HRV serotype 1A; assay: Antirhinoviral HI-HeLa cell culture assay (XTT cell protection), HRV-1A; format: cell-based, human rhinovirus; details: HI-HeLa cells
# Procedure: as §1, §2, §3, §4
# [8] = system: HRV serotype 16; assay: Antirhinoviral HI-HeLa cell culture assay (XTT cell protection), HRV-16; format: cell-based, human rhinovirus; details: HRV serotype 16, HI-HeLa cells
# Procedure: as §1, §2, §3, §4
# [9] = system: HRV serotype 89; assay: Antirhinoviral HI-HeLa cell culture assay (XTT cell protection), HRV-89; format: cell-based, human rhinovirus; details: HRV serotype 89, HI-HeLa cells
# Procedure: as §1, §2, §3, §4
# Recombinant Rhinovirus 3C protease serotype 16, sequence (Q82122 1511-1693): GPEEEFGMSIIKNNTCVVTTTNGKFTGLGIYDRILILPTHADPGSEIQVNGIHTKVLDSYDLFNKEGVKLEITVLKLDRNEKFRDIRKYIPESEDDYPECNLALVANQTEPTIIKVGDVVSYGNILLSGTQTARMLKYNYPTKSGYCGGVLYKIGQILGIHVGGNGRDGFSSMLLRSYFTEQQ
# T1 sequence (P04936 1508-1690): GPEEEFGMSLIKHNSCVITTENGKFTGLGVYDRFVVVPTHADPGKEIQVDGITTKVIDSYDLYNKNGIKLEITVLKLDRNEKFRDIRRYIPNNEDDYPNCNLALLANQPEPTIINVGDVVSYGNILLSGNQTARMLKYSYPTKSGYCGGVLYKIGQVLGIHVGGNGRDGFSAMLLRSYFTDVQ
# T2 sequence (P03303 1538-1719): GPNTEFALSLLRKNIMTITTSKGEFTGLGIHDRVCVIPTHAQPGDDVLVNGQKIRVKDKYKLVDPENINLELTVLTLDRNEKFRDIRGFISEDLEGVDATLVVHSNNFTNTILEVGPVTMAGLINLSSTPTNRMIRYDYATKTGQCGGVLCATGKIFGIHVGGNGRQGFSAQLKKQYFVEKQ
SMILES,CC50 ([1]; line for HRV serotype-14),EC50 [2],CC50 ([1]; line for HRV serotype 2),CC50 ([1]; line for HRV serotype 39),kobs/I [4],kobs/I [5],kobs/I [6],other results
"CCOC(=O)/C=C/[C@H](CCC(N)=O)NC(=O)[C@@H](CC(=O)[C@@H](NC(=O)SCC)C(C)C)Cc1ccc(F)cc1 [Compound 13, Ethyl-3-(EtSCO-L-ValΨ[COCH2]-L-(p-F)Phe-L-Gln)-E-Propenoate]",> 3000 nM,–,–,–,–,–,–,–
"Cc1cc(CCCCCCCOc2ccc(C3=NCCO3)cc2)on1 [WIN 51711, reference compound]",> 60000 nM,780 nM,–,–,–,–,–,–
"CC(=O)N1CC/C(=C\C(CCC(N)=O)NC(=O)C(CC(=O)C(NC(=O)SC2CCCC2)C(C)C)Cc2ccc(C)cc2)C1=O [Compound 17, [CyPentylSCO-L-ValΨ[COCH2]-L-(p-CH3)Phe-L-Gln]-E-1-Acetyl-3-methylene-pyrrolidin-2-one]",> 10000 nM,27 nM,> 10000 nM,> 10000 nM,–,–,–,EC50 [3]: 480 nM
"CCOC(=O)/C=C/C(CCC(N)=O)NC(=O)C(CC(=O)C(CC(C)C)NC(=O)SCc1ccccc1)Cc1ccccc1 [Compound 6, Ethyl-3-(BnSCO-L-LeuΨ[COCH2]-L-Phe-L-Gln)-E-Propenoate]",–,–,–,–,"13,350 M^−1sec^−1","87,600 M^−1sec^−1","23,230 M^−1sec^−1",–
"CCOC(=O)/C=C/[C@H](CCC(N)=O)NC(=O)[C@@H](CC(=O)[C@H](CC(C)C)NC(=O)SCC)Cc1ccccc1 [Compound 2, Ethyl-3-(EtSCO-L-LeuΨ[COCH2]-L-Phe-L-Gln)-E-Propenoate]",–,–,> 320000 nM,–,"4,600 M^−1sec^−1","47,000 M^−1sec^−1","10,410 M^−1sec^−1",–
"CCOC(=O)/C=C/C(CCC(N)=O)NC(=O)C(CC(=O)C(NC(=O)SC1CCCC1)C(C)(C)C)Cc1ccccc1 [Compound 22, Ethyl-3-(CyPentylSCO-L-tert-LeuΨ[COCH2]-L-Phe-L-Gln)-E-Propenoate]",> 32000 nM,50 nM,> 32000 nM,> 32000 nM,–,–,–,CC50 ([1]; line for HRV serotype 1A): > 32000 nM; CC50 ([1]; line for HRV serotype 10): > 32000 nM; CC50 ([1]; line for HRV serotype 16): > 32000 nM; CC50 ([1]; line for HRV serotype 89): > 32000 nM; EC50 [7]: 430 nM; EC50 [8]: 400 nM; EC50 [3]: 400 nM
"CCOC(=O)/C=C/[C@H](CCC(N)=O)NC(=O)[C@@H](CC(=O)[C@@H](NC(=O)SCC)C(C)C)Cc1ccc(C(F)(F)F)cc1 [Compound 15, Ethyl-3-(EtSCO-L-ValΨ[COCH2]-L-(p-CF3)Phe-L-Gln)-E-Propenoate]",> 1000 nM,63 nM,–,–,–,–,–,"kobs/I ([5]; RVP serotype-14, progress curves, enzyme start experiments): 127,000 M^−1sec^−1"
"CCOC(=O)/C=C/C(CCC(N)=O)NC(=O)C(CC(=O)C(CC(C)C)NC(=O)OCc1ccccc1)Cc1ccccc1 [Compound 1, Ethyl-3-(CBZ-L-LeuΨ[COCH2]-L-Phe-L-Gln)-E-Propenoate]",> 320000 nM,–,–,–,–,–,–,–
CCOC(=O)/C=C/C(CCC(N)=O)NC(=O)C(CC(=O)C(NC(=O)SC1CCCC1)C(C)C)Cc1ccc(F)cc1 (stereo not shown) [Compound 14],> 10000 nM,20 nM,> 10000 nM,> 10000 nM,–,–,–,CC50 ([1]; line for HRV serotype 1A): > 10000 nM; CC50 ([1]; line for HRV serotype 10): > 10000 nM; CC50 ([1]; line for HRV serotype 16): > 10000 nM; CC50 ([1]; line for HRV serotype 89): > 10000 nM; EC50 [7]: 170 nM; EC50 [9]: 80 nM
"CCOC(=O)/C=C/C(CCC(N)=O)NC(=O)C(CC(=O)C(NC(=O)SCc1ccccc1)C(C)C)Cc1ccccc1 [Compound 5, Ethyl-3-(BnSCO-L-ValΨ[COCH2]-L-Phe-L-Gln)-E-Propenoate]",–,–,–,–,"26,900 M^−1sec^−1","500,000 M^−1sec^−1","89,700 M^−1sec^−1",–
